Marks after values point to notes of the source that are not given here.
Tests used:
CD36 mRNA = assay: Real-time quantitative PCR of CD36 mRNA in foam cells; assay type: cell-based; settings: 25 μM, rat foam cells
Experimental: FIG. 1 provides effects of a ginsenoside compound K (C-K, 25 μM) and pyrrolidine dithiocarbamate (PDTC, 25 μM) on the foam cell CD36 mRNA expression. a: P<0.05, vs foam cell group; b: P<0.05, vs PDTC. PDTC (25 μM) C-K (25 μM) (n=5).
(1) Material and reagents (the same as Example 2).
(2) real-time quantitative PCR analysis (a reference method: Zhang Yiguan, Li Xiaohui, Fan Jishan, Zhang Haigang, Li Shuhui, Liao Wenqiang, Pang Yan, Jia Yi. Total panax notoginsenosides suppress atherosclerosis formation in rats by means of antiinflammatory and blood fat regulating action. Progress in Modern Biomedicine. 2007, 27(11): 1601-1607).
Data was expressed as x±s, variance analysis were carried out between groups by SPSS 13.0 software.

[1] = tested on: macrophage-derived foam cells of rat abdominal cavity; assay: Assay of amount of TC and CE in ox-LDL induced macrophage-derived foam cells; assay type: cell-based; settings: 25 μM, 48 hours, rat foam cells, x ± s, n = 5
Experimental: 1. Experiment animal: SD rats, male, 200-250 g, bought from the third Military Medical University Experiment Animal Center.
2. Reagents: RPMI 1640 culture medium free of phenol red bought from Invitrogen company; LDL (115 mg/mL) bought from Peking Union Medical College; total cholesterol kit and free cholesterol kit bought from Shanghai Mind Bioengineering Limited Company; ginsenoside compound K (hereinafter being called C-K for short. White powders, purity 99%), provided by Kunming Nuowei Jinshen Bioengineering limited company supply (batch number: NTGA070521, details see China invention patent 200710066011. X “a method of preparing rare ginsenoside compound K by streptomycete fermentation of Sanchi saponins”).
LDL was placed into PBS comprising 10 μM Cu^2+, dialysed at 37° C. for 12 h, then was placed into PBS comprising 0.01% EDTA, and dialysed at 4° C. for 24 hours before stopping oxidization, then was subjected to filtration sterilization, and stored for use.
4. Culture of macrophage and establishment of foam cells model (available literature: Jia Yi, Li Xiaohui, Xing Mao, Hei Xuefeng, Liu Ya, He Cuiyao. Studies on affect of various combinations of 3 sorts of monomers in total panax notoginsenosides on formation of mouse macrophage-derived foam cells. Journal of China Pharmacy, 2008, 19 (2), 881-883.)
each rat were intraperitoneally injected with 2 mL RPMI 1640 culture solution free of serum and phenol red, and it was sacrificed by cervical dislocation after 20 minutes, and was soaked in 75% ethanol for 10 minutes, then rat's belly was cut open, and fluids in abdominal cavity were collected, and centrifugated at 750 r/min for 5 minutes, and then cells were collected, and cells concentrations were adjusted to […] by using RPMI 1640 culture solution which were free of phenol red and comprised 10% Fetal Calf Serum. 10 pieces of 6 wells plate was added 1 mL cells suspension per well, and was placed into an incubator of 5% CO2 at 37 °C, and cultured for two hours, then supernatant was discarded, and nonadhesive cells was washed by using PBS. Original culture medium was discarded. Culture was carried out for 48 hours after adding 5 mL culture medium comprising 20 mg/L ox-LDL, and thereby foam cells were formed.
[…] were divided into ox-LDL model group, pyrrolidine dithiocarbamate (PDTC) (drugs source: Sigma), control group and C-K interference group. Each group had 5 pieces of plates. […]
Culture solution was aspirated, and lipid in foam cells was extracted by Folch method (reference: Folch J et al, A simple method for the isolation and purification of total lipides from animal tissues. J Biol Chem, 1957, 226 (1): 497-509), according to direction for use of kit.
Data was expressed as x±s, and variance analysis was carried out between groups by SPSS 13.0 software.

S=C(S)N1CCCC1 [PDTC, pyrrolidine dithiocarbamate, reference compound]
change of CD36 mRNA expression in foam cells compared with model group (CD36 mRNA): increased expression | CE in foam cells ([1]; ox-LDL model group 15.24 ± 2.38): 30.63 ± 3.17^a | CE/TC in foam cells ([1]; ox-LDL model group 59.56 ± 2.96): 50.29 ± 3.54^a % | TC in foam cells ([1]; ox-LDL model group 87.20 ± 2.19): 60.81 ± 2.62^a

— patent US20110212909A1, “Use of Ginsenoside Compound K in the Preparation of a Medicament for the Prevention and Treatment of Atherosclerosis” (priority 2008, published 2011)
